Source: US20050042256A1, “Lipid blends and food products containing oleic fatty acid and omega-6 fatty acids, designed to increase the intramyocellular lipid level” (priority 2001, published 2005)

Tested on: Human skeletal muscle cells
Test: IMCL (triacylglycerol) accumulation in muscle cells incubated with fatty acids
Type: cell-based
Conditions: 0.5 mM FFA salt bound to albumin, DMEM + 25 mM glucose, 24 hrs at 37° C; FIGURE 1
Protocol: Human skeletal muscle cells were used as a model to test the effect that different fatty acids (as precursors) may have on the extent of muscle triglyceride storage.
Primary cultures were initiated from a bank of satellite cells of muscle biopsies obtained from patients free of muscle disease. Aneural muscle cultures were established in a monolayer, then they were grown in a DMEM-M-199 medium, 3:1, supplemented with 10% fetal bovine serum, 10 μg/ml insulin, 2 mM glutamine, 25 ng/ml fibroblast growth factor, and 10 ng/ml epidermal growth factor. Immediately after myoblast fusion, cells were rinsed in Hank's balanced salt solution and a medium devoid of FGF, EGF, and glutamine was added. Muscle cultures were maintained in this medium for up to 4 weeks.
Cells were incubated with DMEM+glucose (25 mM)+0.5 mM FFA salt bound to albumin (in independent experiments for each FFA), for 24 hrs at 37° C. As examples for the fatty acids used in blend 1 (promoting IMCL storage), oleate (C18:1 cis), linoleate (C18:2 cis/cis), n-6 linoleate and n-3 linoleate.
As examples for the fatty acids used in blend 2 (inhibiting IMCL storage), octanoate (C8:0), palinitate (C16:0) and stearate (C18:0).
After incubation, cell lipids were extracted according to the method of Bligh and Dyer (Can. J. Biochem Physiol 37: 911-917, 1959). To determine the IMCL content, extracts were prepared by scraping cell monolayers in a buffer consisting of 50 mM Tris, 100 mM KCl, 20 mM KF, 0.5 mM EDTA and 0.05% Lubrol PX, pH 7.9, and they were sonicated three times for 5 seconds. Homogenates were centrifuged at 11′000 g for 15 min and the resulting supernatants were collected. Total triacylglycerol (i.e. IMCL) was measured with a Cobas-Bio autoanalyzer with a GPO-Trinder kit, with triolein resuspended in the extraction buffer as a standard. The intramyocellular nature of the triglycerides was evidenced by histo-chemical staining with Sudan III in 70% ethanol.

SMILES	accumulation / synthesis of IMCL (total triacylglycerol)
CCCCCCCC(=O)O [octanoate, octanoate (C8:0)]	no accumulation of IMCL
CCCCCCCC/C=C\CCCCCCCC(=O)O [oleate, oleate (C18:1 cis)]	notably higher synthesis
CCCCC/C=C\C/C=C\CCCCCCCC(=O)O [linoleate, linoleate (C18:2 cis/cis)]	notably higher synthesis
CCCCCCCCCCCCCCCCCC(=O)O [stearate, stearate (C18:0)]	moderate synthesis
